Data: PubChem BioAssay AID2060619 (Molecular Pharmacology Branch, DTP, NCI, 2025)

System: 323965-272-R-J2-PDC complex spheroid viability
Assay: Anticancer human tumor 323965-272-R-J2-PDC patient-derived pancreatic carcinoma cell line growth inhibition [CLK]
Conditions: for IC50: curve of first compound; for viability, T/C: stronger effect = lower value
Source text: A high-throughput screen of multi-cell type tumor spheroids was designed to identify active combinations of […] and targeted small molecules. Complex spheroids include a stromal component modeled by human endothelial cells (HUVEC) and fibroblasts modeled by human mesenchymal stem cells (MSCs). The concentration ranges selected for each drug and investigational agent were based upon clinically achievable concentrations if the clinical Cmax of the agent was known.
Compounds. The drugs and investigational agents: cirtuvivint (SM08502; NSC835563), CC-671 (NSC850746), vemurafenib (NSC761431), tapotoclax (NSC804041), sotorasib (NSC818433), adagrasib (NSC831453), MRTX-1133 (NSC836407), BAY2416964 (NSC825713), copanlisib (NSC816437), inavolisib (NSC800729), abemaciclib (NSC768073), osimertinib (NSC779217), entinostat (NSC756642), eltanexor (KPT-8602, NSC794443), venetoclax (NSC766270), ceralasertib (NSC777638), bortezomib (NSC756655), olaparib (NSC753686), talazoparib (NSC767125), alisertib (NSC759677), peposertib (NSC802822), gemcitabine (NSC613327), 5-fluorouracil (NSC19893), SN-38 (NSC673596), oxaliplatin (NSC266046), paclitaxel (NSC125973), and doxorubicin (NSC123127), were obtained from the National Cancer Institute (NCI) Developmental Therapeutics Program Chemical Repository. The FDA-approved anticancer drug set is available from the Developmental Therapeutics Program at https://dtp.cancer.gov/organization/dscb/obtaining/available plates.htm. […] The stock solutions were prepared in dimethyl sulfoxide (DMSO, Sigma-Aldrich, St. Louis, MO, cat. D2650), except for the platinum complexes which were prepared in saline (Quality Biological, Gaithersburg, MD, cat. 114-055-101), at 800-fold the tested concentration and stored at -70 degrees C prior to their use. All drugs and investigational agents were tested over a range starting from a high concentration at or near the clinical Cmax and decreasing in half-log increments. If the clinical Cmax for an agent had not been determined, the highest concentration tested was 10 microM.
Cell Culture. All cells were maintained in an incubator at 37 degrees C and 5% CO2 with 95% humidity. The PDC lines were cultured according to standard operating procedures established by the NCI PDMR. Briefly, all PDCs were thawed and cultured in Matrigel-coated flasks prepared with a working solution of 1X Ham's F-12 nutrient mix, without supplementation (Invitrogen, Waltham, MA, cat. 11765054), 100 U/mL penicillin-streptomycin (Invitrogen, cat. 15140122), and 2.5% Matrigel (Corning Inc., Corning, NY, cat. 354248) for the first three passages. The 947758-054-R-J2-PDC line was cultured in 6B/Colon 1A media, which includes advanced DMEM/F-12 (Thermo Fisher Scientific, cat. 12634028), 10 mM HEPES (Thermo Fisher Scientific, cat. 15630080), 1X GlutaMAX supplement (Thermo Fisher Scientific, cat. 35050061), 0.1 mg/mL primocin (InvivoGen, cat. ant-pm-2), 10% defined fetal bovine serum, heat inactivated (HyClone Laboratories Inc., cat. SH30070.03HI), 1.25 mM N-Acetyl-L-cysteine (Sigma-Aldrich, cat. A9165), 10 mM nicotinamide (Sigma-Aldrich, cat. N0636), 1X B-27 supplement (Thermo Fisher Scientific, cat. 17504044), 1X N-2 supplement (Thermo Fisher Scientific, cat. 17502048), and 10 microM Y-27632 dihydrochloride (Tocris Bioscience, cat. 1254). The 876862-298-R-J1-PDC was cultured in 6E media, which includes all 6B/Colon 1A media components plus 50% L-WRN conditioned media (ATCC, cat. CRL-3276), 50 ng/mL recombinant human EGF recombinant protein (hEGF; Thermo Fisher Scientific, cat. PHG0311), 10 ng/mL recombinant human fibroblast growth factor 10 (hGFG-10; PeproTech, cat. 100-26), 1 ng/mL recombinant human fibroblast growth factor 2 (hFGF-2; PeproTech, cat. 100-18B), and 1 µM prostaglandin E2 (PGE2; Tocris, cat. 2296). The 227483-062-R1-J1-PDC line was cultured in Panc media, containing all 6E components except hFGF-2, with the addition of 500 nM SB-431542 (Selleckchem, cat. S1067) and 10 nM gastrin (Tocris, cat. 3006). […]

[1] = second compound 0.0316 µM, first compound 0.0316 µM
[2] = second compound 0.0316 µM, first compound 0.1 µM
[3] = second compound 0.0316 µM, first compound 0.316 µM
[4] = second compound 0.0316 µM, first compound 1 µM
[5] = second compound 0.0316 µM, first compound 3.16 µM
[6] = second compound 0.0316 µM, first compound 10 µM
[7] = second compound 0.1 µM, first compound 0.0316 µM
[8] = second compound 0.1 µM, first compound 0.1 µM
[9] = second compound 0.1 µM, first compound 0.316 µM
[10] = second compound 0.1 µM, first compound 1 µM
[11] = second compound 0.1 µM, first compound 3.16 µM
[12] = second compound 0.1 µM, first compound 10 µM
[13] = second compound 0.316 µM, first compound 0.0316 µM
[14] = second compound 0.316 µM, first compound 0.1 µM
[15] = second compound 0.316 µM, first compound 0.316 µM
[16] = second compound 0.316 µM, first compound 1 µM
[17] = second compound 0.316 µM, first compound 3.16 µM
[18] = second compound 0.316 µM, first compound 10 µM
[19] = second compound 1 µM, first compound 0.0316 µM
[20] = second compound 1 µM, first compound 0.1 µM
[21] = second compound 1 µM, first compound 0.316 µM
[22] = second compound 1 µM, first compound 1 µM
[23] = second compound 1 µM, first compound 3.16 µM
[24] = second compound 1 µM, first compound 10 µM
[25] = second compound 3.16 µM, first compound 0.0316 µM
[26] = second compound 3.16 µM, first compound 0.1 µM
[27] = second compound 3.16 µM, first compound 0.316 µM
[28] = second compound 3.16 µM, first compound 1 µM
[29] = second compound 3.16 µM, first compound 3.16 µM
[30] = second compound 3.16 µM, first compound 10 µM
[31] = second compound 10 µM, first compound 0.0316 µM
[32] = second compound 10 µM, first compound 0.1 µM
[33] = second compound 10 µM, first compound 0.316 µM
[34] = second compound 10 µM, first compound 1 µM
[35] = second compound 10 µM, first compound 3.16 µM
[36] = second compound 10 µM, first compound 10 µM
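Also: spheroids exposed to agents for seven days before readout.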
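For viability, T/C in this document: percent of DMSO vehicle control wells so 100% = untreated growth.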

Work on `C#Cc1c(F)ccc2cc(O)cc(-c3ncc4c(N5CC6CCC(C5)N6)nc(OCC56CCCN5CC(F)C6)nc4c3F)c12` (stereo unspecified) + CN1CCN(c2cc(C(=O)Nc3cc4cc(-c5cnn(C)c5)ccc4cn3)ccn2)CC1 yielded an IC50 (second compound 0.0316 µM) of over 10 µM, an IC50 (second compound 0.1 µM) of 3.05 µM and an IC50 (second compound 0.316 µM) of under 0.0316 µM. The IC50 (second compound 1 µM) was under 0.0316 µM, the IC50 (second compound 3.16 µM) was under 0.0316 µM and the IC50 (second compound 10 µM) was under 0.0316 µM. For the same molecule, the viability, T/C [1] was 101%, the viability, T/C [2] was 101% and the viability, T/C [3] was 101%. The viability, T/C [4] was 95.8%, the viability, T/C [5] was 67.1% and the viability, T/C [6] was 50.9%. For the same molecule, the viability, T/C [7] was 68.8%, the viability, T/C [8] was 73.2% and the viability, T/C [9] was 71.1%. It also gave a viability, T/C [10] of 63.3%, a viability, T/C [11] of 49.9% and a viability, T/C [12] of 42.6%. For the same molecule, the viability, T/C [13] was 28.4%, the viability, T/C [14] was 25.6% and the viability, T/C [15] was 24.8%. It also gave a viability, T/C [16] of 22.9%, a viability, T/C [17] of 17.8% and a viability, T/C [18] of 15.1%. For the same molecule, the viability, T/C [19] was 3.55%, the viability, T/C [20] was 3.52% and the viability, T/C [21] was 3.35%. It also gave a viability, T/C [22] of 3.07%, a viability, T/C [23] of 2.52% and a viability, T/C [24] of 2.87%. The viability, T/C [25] was 3.72%, the viability, T/C [26] was 4.19% and the viability, T/C [27] was 3.39%. For the same molecule, the viability, T/C [28] was 3.07%, the viability, T/C [29] was 3.51% and the viability, T/C [30] was 5.09%. For the same molecule, the viability, T/C [31] was 4.24%, the viability, T/C [32] was 4.08% and the viability, T/C [33] was 5.09%. The viability, T/C [34] was 3.16%, the viability, T/C [35] was 3.48% and the viability, T/C [36] was 3.19%.

Molecule `C=C(F)C(=O)N1CCN(c2nc(OCC3CCCN3C)nc3c2CCN(c2cccc4cccc(Cl)c24)C3)CC1CC#N` (stereo unspecified) + CN1CCN(c2cc(C(=O)Nc3cc4cc(-c5cnn(C)c5)ccc4cn3)ccn2)CC1 has an IC50 (second compound 0.0316 µM) of over 10 µM, an IC50 (second compound 0.1 µM) of 0.0316 µM and an IC50 (second compound 0.316 µM) of under 0.0316 µM. For the same molecule, the IC50 (second compound 1 µM) was under 0.0316 µM, the IC50 (second compound 3.16 µM) was under 0.0316 µM and the IC50 (second compound 10 µM) was under 0.0316 µM. It also gave a viability, T/C [1] of 59%, a viability, T/C [2] of 56.5% and a viability, T/C [3] of 48.5%. For the same molecule, the viability, T/C [4] was 74.6%, the viability, T/C [5] was 84.4% and the viability, T/C [6] was 29.1%. It also gave a viability, T/C [7] of 45.1%, a viability, T/C [8] of 44.3% and a viability, T/C [9] of 38%. It also gave a viability, T/C [10] of 44.3%, a viability, T/C [11] of 58.5% and a viability, T/C [12] of 25.3%. For the same molecule, the viability, T/C [13] was 15.6%, the viability, T/C [14] was 14.8% and the viability, T/C [15] was 14.6%. For the same molecule, the viability, T/C [16] was 15.5%, the viability, T/C [17] was 13.2% and the viability, T/C [18] was 5.86%. The viability, T/C [19] was 2.38%, the viability, T/C [20] was 2.52% and the viability, T/C [21] was 2.56%. For the same molecule, the viability, T/C [22] was 2.45%, the viability, T/C [23] was 1.97% and the viability, T/C [24] was 0.73%. The viability, T/C [25] was 2.89%, the viability, T/C [26] was 2.94% and the viability, T/C [27] was 2.9%. It also gave a viability, T/C [28] of 2.86%, a viability, T/C [29] of 4.1% and a viability, T/C [30] of 0.62%. For the same molecule, the viability, T/C [31] was 3.59%, the viability, T/C [32] was 3.43% and the viability, T/C [33] was 2.46%. The viability, T/C [34] was 2.58%, the viability, T/C [35] was 3.56% and the viability, T/C [36] was 0.3%.

`CC(CO)NC(=O)c1cc(-c2ccc(Cl)cc2)nn(-c2cnn(C)c2)c1=O` (stereo unspecified) + CN1CCN(c2cc(C(=O)Nc3cc4cc(-c5cnn(C)c5)ccc4cn3)ccn2)CC1 gave an IC50 (second compound 0.0316 µM) of over 10 µM, an IC50 (second compound 0.1 µM) of over 10 µM and an IC50 (second compound 0.316 µM) of under 0.0316 µM. It also gave an IC50 (second compound 1 µM) of under 0.0316 µM, an IC50 (second compound 3.16 µM) of under 0.0316 µM and an IC50 (second compound 10 µM) of under 0.0316 µM. The viability, T/C [1] was 97.3%, the viability, T/C [2] was 102% and the viability, T/C [3] was 103%. The viability, T/C [4] was 87.4%, the viability, T/C [5] was 112% and the viability, T/C [6] was 113%. The viability, T/C [7] was 68%, the viability, T/C [8] was 80.5% and the viability, T/C [9] was 83.1%. It also gave a viability, T/C [10] of 72.5%, a viability, T/C [11] of 76% and a viability, T/C [12] of 89.5%. It also gave a viability, T/C [13] of 25.8%, a viability, T/C [14] of 27.2% and a viability, T/C [15] of 25%. The viability, T/C [16] was 22.3%, the viability, T/C [17] was 28.2% and the viability, T/C [18] was 32.8%. It also gave a viability, T/C [19] of 3.75%, a viability, T/C [20] of 3.59% and a viability, T/C [21] of 4.21%. It also gave a viability, T/C [22] of 3.61%, a viability, T/C [23] of 3.03% and a viability, T/C [24] of 3.2%. It also gave a viability, T/C [25] of 4.17%, a viability, T/C [26] of 3.62% and a viability, T/C [27] of 3.4%. The viability, T/C [28] was 3.82%, the viability, T/C [29] was 4.87% and the viability, T/C [30] was 4.3%. For the same molecule, the viability, T/C [31] was 4.55%, the viability, T/C [32] was 5.29% and the viability, T/C [33] was 4.22%. For the same molecule, the viability, T/C [34] was 3.24%, the viability, T/C [35] was 3.64% and the viability, T/C [36] was 3.17%.
